We go through five compounds from paper PMC8234620, “An Integrated Peptidomics and In Silico Approach to Identify Novel Anti-Diabetic Peptides in Parmigiano-Reggiano Cheese” (Biology, 2021).

The IC50 is the concentration at which inhibition is half-maximal.

On the set-up of assay [1]: method as in BIOPEP database and Milk Bioactive Peptides Database. The following applies: ref BIOPEP database and Milk Bioactive Peptides Database; cited from earlier work.
The subject of assay [2] is angiotensin converting enzyme. To be noted: cited from earlier work; for Bioactivity: ACE-inhibition: ref BIOPEP database and Milk Bioactive Peptides Database; for IC50 values against ACE: ref [47],[48],[49].
Details of assay [3]: method as in PMID 27572703, PMID 33337010. To be noted: mild hypertensive subjects; ref [47],[58]; cited from earlier work.
Details of assay [4]: method as in BIOPEP database and Milk Bioactive Peptides Database. To be noted: ref BIOPEP database and Milk Bioactive Peptides Database; cited from earlier work. The source holds these as a separate data set.
On the set-up of assay [5]: method as in BIOPEP database and Milk Bioactive Peptides Database. The following applies: ref BIOPEP database and Milk Bioactive Peptides Database; cited from earlier work. This is another data set of the same source.
For assay [6], the system named is Staphylococcus aureus, Streptococcus pyogenes, and Listeria monocytogenes. The arrangement: method as in PMID 8603791. To be noted: mice; ref [50]; cited from earlier work.
On the set-up of assay [7]: method as in BIOPEP database and Milk Bioactive Peptides Database. The following applies: ref BIOPEP database and Milk Bioactive Peptides Database; cited from earlier work. This is another data set of the same source.
Details of assay [8]: method as in PMID 16899668, doi:10.1016/j.foodres.2015.12.007. The following applies: spontaneously hypertensive rats; ref [48],[49]; cited from earlier work.
The target of a further assay is yeast α-glucosidase (Saccharomyces cerevisiae, UniProt P53341). Briefly: α-Glucosidase assay. The format is biochemical. To be noted: synthetic peptides; n.a. = not active. Here is the method: α-Glucosidase assay was performed as reported in Bellesia et al., adapted to a microplate reader. The reaction was performed by mixing 66.7 μL of potassium phosphate buffer (67 mmol/L, pH 6.8), 3.3 μL of glutathione 3 mmol/L, 20 μL of different concentrations of water-soluble low-molecular weight peptide extracts, and 5 μL of yeast α-glucosidase 0.2 U/mL. After 20 min of incubation at 37 °C, the reaction was started by the addition of 5 μL of p-nitrophenyl-glucose 5 mmol/L. After a further 20 min of incubation at 37 °C, the reaction was stopped by the addition of 150 μL of Na2CO3 100 mmol/L. The amount of released p-nitrophenol was determined by reading at 405 nm with a microplate reader. Results were expressed as IC50 as reported above.
(§1) Selected peptides were then synthesized (Bio-Fab Research, Rome, Italy) and tested for their inhibitory activity against DPP-IV, α-glucosidase, and α-amylase. The assays were carried out as reported in Section 2.3. The results were expressed as IC50 values.

Assay [9] deals with T1, porcine pancreatic α-amylase (Sus scrofa, UniProt P00690).
T1 sequence (P00690 16-511): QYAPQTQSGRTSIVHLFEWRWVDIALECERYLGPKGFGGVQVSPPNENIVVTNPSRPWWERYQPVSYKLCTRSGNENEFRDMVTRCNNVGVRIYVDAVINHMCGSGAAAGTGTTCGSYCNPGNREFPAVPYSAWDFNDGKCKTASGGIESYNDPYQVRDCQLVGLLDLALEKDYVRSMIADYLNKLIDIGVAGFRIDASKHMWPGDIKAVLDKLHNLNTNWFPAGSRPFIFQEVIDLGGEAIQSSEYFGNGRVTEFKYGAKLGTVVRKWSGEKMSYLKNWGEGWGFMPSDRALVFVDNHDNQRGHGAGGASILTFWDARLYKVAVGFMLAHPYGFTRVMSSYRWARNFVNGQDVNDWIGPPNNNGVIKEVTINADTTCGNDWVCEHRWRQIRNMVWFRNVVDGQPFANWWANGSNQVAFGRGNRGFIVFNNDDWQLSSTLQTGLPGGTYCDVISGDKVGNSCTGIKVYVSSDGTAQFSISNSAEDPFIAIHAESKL
Briefly: α-Amylase assay. It is filed as biochemical. To be noted: synthetic peptides; n.a. = not active. How it is done: α-Amylase assay was performed in accordance with McDougall et al. adapted to a microplate reader. For the reaction, 5 μL of 2 U/mL of porcine pancreatic α-amylase (dissolved in sodium phosphate buffer 20 mmol/L pH 6.9 containing 6.7 mmol/L NaCl) were mixed with 45 μL of sodium phosphate buffer or different concentrations of water-soluble low-molecular weight peptide extracts. The mixture was incubated at 37 °C for 20 min before adding 50 μL of 1% starch solution. The reaction was carried out at 37 °C for 10 min and stopped by the addition of dinitrosalicylic acid solution, followed by 15 min boiling in a water bath. After the addition of 450 μL of water, 200 μL of solution was transferred in a 96-well plate and the absorbance was read at 540 nm. Results were expressed as IC50, namely the peptides concentration (expressed in mg/mL) able to inhibit the enzymatic activity by 50%. The IC50 values were calculated by plotting the peptide concentration (base-10 logarithm) as a function of the percentage of enzyme inhibition.
as §1

Another assay has as its target T2, rat intestinal DPP-IV (Rattus norvegicus, UniProt P14740).
T2 construct: 10 μL of rat intestinal DPP-IV (0.1 U/mL in the assay); from tissue; host or cells: rat intestine
Briefly: Dipeptidyl peptidase IV (DPP-IV) assay. It is filed as biochemical. To be noted: synthetic peptides. Here is the method:
DPP-IV assay was performed as described in Tagliazucchi et al.. Briefly, in a 96-well plate, 10 μL of rat intestinal DPP-IV (0.1 U/mL in the assay) were mixed with 145 μL of Tris-HCl buffer (pH 7.0; 0.1 mol/L) and 40 μL of different concentrations of water-soluble low-molecular weight peptide extracts. After 20 min of incubation at 37 °C, the reaction was started by the addition of 5 μL of glycine-proline-p-nitroanilide (6.4 mmol/L). The amount of released p-nitroanilide was determined after 20 min of incubation at 37 °C by reading at 405 nm in a microplate reader. Results were expressed as IC50 as reported above.
as §1

For another assay, the system named is α-glucosidase. To be noted: cited from earlier work.

yeast α-glucosidase, sequence (P53341 whole entry): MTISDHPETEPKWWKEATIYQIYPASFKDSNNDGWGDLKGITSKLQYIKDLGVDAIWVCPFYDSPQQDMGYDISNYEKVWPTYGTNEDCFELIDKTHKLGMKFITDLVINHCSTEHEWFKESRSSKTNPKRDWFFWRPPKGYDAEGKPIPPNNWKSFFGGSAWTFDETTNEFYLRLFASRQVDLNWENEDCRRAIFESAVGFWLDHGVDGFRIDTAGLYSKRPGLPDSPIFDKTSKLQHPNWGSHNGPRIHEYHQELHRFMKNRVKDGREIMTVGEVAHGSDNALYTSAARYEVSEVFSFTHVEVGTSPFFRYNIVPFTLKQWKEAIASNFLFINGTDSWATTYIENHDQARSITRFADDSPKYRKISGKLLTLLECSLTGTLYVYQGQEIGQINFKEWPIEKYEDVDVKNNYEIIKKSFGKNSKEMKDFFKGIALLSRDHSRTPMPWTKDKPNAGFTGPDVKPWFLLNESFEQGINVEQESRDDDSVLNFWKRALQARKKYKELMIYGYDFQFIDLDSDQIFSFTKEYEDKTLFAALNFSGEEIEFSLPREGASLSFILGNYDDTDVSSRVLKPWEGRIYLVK
T2 sequence (P14740 whole entry): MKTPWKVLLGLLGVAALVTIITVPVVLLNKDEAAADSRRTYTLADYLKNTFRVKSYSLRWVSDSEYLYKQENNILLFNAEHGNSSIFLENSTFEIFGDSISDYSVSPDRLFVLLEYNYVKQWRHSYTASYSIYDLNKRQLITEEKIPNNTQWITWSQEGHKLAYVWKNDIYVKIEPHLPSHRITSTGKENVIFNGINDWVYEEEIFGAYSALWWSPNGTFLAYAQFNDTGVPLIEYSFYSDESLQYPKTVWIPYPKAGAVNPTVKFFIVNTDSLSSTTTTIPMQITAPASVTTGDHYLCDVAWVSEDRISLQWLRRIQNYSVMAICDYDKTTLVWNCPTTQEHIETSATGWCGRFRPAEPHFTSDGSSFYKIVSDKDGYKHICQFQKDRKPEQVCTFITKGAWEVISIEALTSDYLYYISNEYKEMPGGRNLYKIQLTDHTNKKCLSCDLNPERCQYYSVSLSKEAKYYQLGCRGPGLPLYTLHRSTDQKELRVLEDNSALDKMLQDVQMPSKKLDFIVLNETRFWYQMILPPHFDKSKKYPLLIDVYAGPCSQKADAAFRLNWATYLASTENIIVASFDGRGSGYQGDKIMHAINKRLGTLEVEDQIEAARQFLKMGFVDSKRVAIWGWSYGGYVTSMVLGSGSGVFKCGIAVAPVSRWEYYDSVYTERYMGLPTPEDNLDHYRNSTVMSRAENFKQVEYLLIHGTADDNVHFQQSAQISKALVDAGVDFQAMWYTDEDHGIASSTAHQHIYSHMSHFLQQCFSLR

On to VPP, for which, in [1], the “Bioactivity: Antioxidant” value was “Antioxidant”. Moreover, in assay [2], the “Bioactivity: ACE-inhibition” value is “ACE-inhibition” and the “IC50 values against ACE” value is listed as “very low”. In addition, in assay [3], the “in vivo anti-hypertensive effect” value is “anti-hypertensive effect”. Also, the “Bioactivity: Anti-inflammatory” value in [4] was “Anti-inflammatory”.

On to “RPKHPIKHQGLPQEVLNENLLRF [αS1-casein f(1–23), anti-microbial peptide isracidin]”, for which the “Bioactivity: Anti-microbial” value in assay [5] is “Anti-microbial”. In addition, the “in vivo anti-microbial effect” value in [6] is listed as “protecting mice”. The “Bioactivity: Immunomodulation” value in [7] is reported as “Immunomodulation”.

For “LHLPLP (UniProt P02666 148-153, looked up, fragment) [β-casein f(133–138)]”, the “effect on systolic blood pressure” value in assay [8] is “powerful decreasing agents of systolic blood pressure”. In addition, in assay [2], the “Bioactivity: ACE-inhibition” value is “ACE-inhibition” and the “IC50 values against ACE” value is on record as “low”.

On to `CC[C@H](C)[C@H](N)C(=O)N1CCC[C@H]1C(=O)N1CCC[C@H]1C(=O)O` [IPP], for which the results for the IC50 (against yeast α-glucosidase; in [9]; at rat intestinal DPP-IV) were 765 ± 15 µM, 763 ± 18.9 µM and 169 ± 2.2 µM, respectively.

Take “PFP (UniProt P02666 76-78, looked up, fragment) [β-casein f(61–63)]”: the “Bioactivity: α-glucosidase inhibition” value with α-glucosidase (ref BIOPEP database and Milk Bioactive Peptides Database) is on record as “α-glucosidase inhibition”. On α-glucosidase (ref [53], read-out: IC50 α-glucosidase, previously reported), the IC50 was 8600 µM. The “Bioactivity: ACE-inhibition” value in assay [2] was “ACE-inhibition”.
